In this assay the target is T1, TTK (Homo sapiens, UniProt P33981).
T1 construct: purchased Thermo Fisher Scientific (Life Technologies) SelectScreen
Put plainly: SelectScreen LanthaScreen. The conditions noted are these: read-out: % displacement. The assay is classed as binding. An outline of the steps: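 Percent values come from Thermo SelectScreen profiling of NU5455, combining activity and binding assays. CSF1R was run in Z'LYTE format at Km app ATP, and CAMK1 in Adapta format with ATP listed at 10.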

T1 sequence (P33981 whole entry): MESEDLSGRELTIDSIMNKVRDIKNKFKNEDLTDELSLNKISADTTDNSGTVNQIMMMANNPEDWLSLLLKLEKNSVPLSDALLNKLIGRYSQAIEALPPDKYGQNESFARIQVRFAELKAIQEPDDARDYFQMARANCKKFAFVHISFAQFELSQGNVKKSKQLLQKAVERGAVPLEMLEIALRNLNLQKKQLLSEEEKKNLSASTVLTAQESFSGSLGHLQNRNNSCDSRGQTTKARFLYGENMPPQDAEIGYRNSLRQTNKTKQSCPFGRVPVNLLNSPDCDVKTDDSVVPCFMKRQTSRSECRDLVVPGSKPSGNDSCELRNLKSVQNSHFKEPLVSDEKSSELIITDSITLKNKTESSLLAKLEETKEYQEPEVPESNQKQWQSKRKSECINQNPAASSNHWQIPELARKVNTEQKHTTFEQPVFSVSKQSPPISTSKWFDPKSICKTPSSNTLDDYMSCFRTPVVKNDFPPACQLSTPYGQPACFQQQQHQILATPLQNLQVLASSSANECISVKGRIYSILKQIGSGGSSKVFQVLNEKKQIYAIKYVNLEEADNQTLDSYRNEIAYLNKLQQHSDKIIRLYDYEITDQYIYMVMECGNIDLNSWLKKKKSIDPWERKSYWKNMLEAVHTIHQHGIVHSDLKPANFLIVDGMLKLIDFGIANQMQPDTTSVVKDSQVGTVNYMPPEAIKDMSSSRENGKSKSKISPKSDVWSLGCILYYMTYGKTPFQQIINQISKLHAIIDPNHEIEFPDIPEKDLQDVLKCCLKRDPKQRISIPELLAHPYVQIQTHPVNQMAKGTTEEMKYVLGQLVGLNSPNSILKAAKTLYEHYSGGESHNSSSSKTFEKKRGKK

As to `CN(C(=O)CN1CCOCC1)c1ccc2sc3c(-c4cccc5c(=O)cc(N6CC7CCC(C6)O7)oc45)cccc3c2c1` [NU5455], the inhibition at 1 µM was -0.7%.

The values are drawn from article PMC6934184, “Selective DNA-PKcs inhibition extends the therapeutic index of localized radiotherapy and chemotherapy” (The Journal of Clinical Investigation, 2019).
